# Values quoted from earlier work in patent US10945947B2, “Formulations for intravenous administration” (GLAXOSMITHKLINE INTELLECTUAL PROPERTY (NO.2) LIMITED, priority 2015, dated 2021).
# Structures can show the parent of a compound that is named as a salt.
# Details: at a higher pH, after oral administration
smiles,measurement,value
Cc1c(F)cccc1NC(=O)Nc1ccc(Cl)c(S(=O)(=O)[C@H]2CCCNC2)c1O [hydrobromide salt of danirixin],solubility and dissolution profiles compared to the free base,improved solubility and dissolution profiles
